Earlier results on 8 compounds are cited in US10399948B2, “Negative allosteric modulators of metabotropic glutamate receptor 3” (Vanderbilt University, priority 2015, dated 2019).

Structures are written as SMILES. Like-named read-outs stand apart in the source and are kept apart here.

The subject of data set [1] is group II mGlu receptors (mGlu2 and mGlu3). As to conditions: cited from earlier work.
The test system of data set [2] is Aβ-induced neurodegeneration. The conditions noted are these: cited from earlier work.
A further data set deals with rat. The conditions noted are these: normal animals; cited from earlier work.
The next data set has as its system C57Bl6/J mice. The conditions noted are these: FST; cited from earlier work.
For the next data set, the system named is mice. As to conditions: cited from earlier work.
In a further data set the test system is mouse. As to conditions: normal animals; cited from earlier work.
The next data set has as its system Helpless (H) mice. As to conditions: cited from earlier work; for activity in the tail suspension test: Helpless (H) mice.
Data set [3] relates to glioma stem cells (GSC) tumors. As to conditions: compared with controls; cited from earlier work.
The next data set has as its system glioma stem cells (GSC). As to conditions: in vitro; cited from earlier work.
For data set [4], the system named is central mGlu2 and mGlu3 receptors. As to conditions: in vivo; cited from earlier work.
The next data set relates to schizophrenic patients. As to conditions: compared to placebo, P<0.001 at week 4; cited from earlier work.
The conditions of data set [5]: in vivo; cited from earlier work.
Data set [6] has as its system olfactory bulbectomized rats. The conditions noted are these: repeated administration for 14 days; cited from earlier work.
For data set [7] the following is noted: cited from earlier work.
Data set [8] has as its system social isolation-reared mice. As to conditions: cited from earlier work.

In the case of `CCCCCCCOC(=O)[C@@]1(F)[C@@H]2C[C@@H](OCc3ccc(Cl)c(Cl)c3)[C@@](N)(C(=O)O)[C@@H]21` [BCI-838], the “duration of inhibition of group II mGlu receptors” value in data set [1] (once-daily oral dosing, brain concentration of active metabolite BCI-632) was 22 h. For the same compound, in [1] (three months of treatment), the “Dutch APP transgene-associated learning and memory impairment” value is “reversed”; the anxiolytic effects result is given as “anxiolytic effects”; the “levels of monomeric and oAβ peptides in the hippocampus and cortex” value is reported as “decreased”. The “hippocampal progenitor cell proliferation” value in data set [1] (wild-type and Alzheimer's diseased mice, 3 months) was “stimulated”.

With `N[C@](CC1c2ccccc2Oc2ccccc21)(C(=O)O)[C@H]1C[C@@H]1C(=O)O` [LY341495], the “amplification of Aβ-induced neurodegeneration by LY566332” value in data set [2] is recorded as “prevented”. The antidepressant-like effects result with rat and in the data set on mouse was “Antidepressant-like effects” in each case. In the data set with C57Bl6/J mice, the immobility time result was “dose-dependently reduced”. The marble-burying behavior entry with mice is recorded as “significantly reduce”. The “activity in the tail suspension test” value with Helpless (H) mice is recorded as “active”. Also, in the data set with Helpless (H) mice (acute administration), the “antidepressant effect in helpless mice” value was “potent antidepressant effect”. For the same compound, in data set [3], the “growth rate and volume of tumors” value is on record as “reduced”. Further, the “proliferation rates and proportion of cells in S phase” value with glioma stem cells (GSC) is “decreased in a time-dependent manner”. Moreover, the “hypolocomotor effect of mGlu2/3 agonist LY379268” value in data set [4] was “achieved the same result”.

On to `N[C@@]1(C(=O)O)CS(=O)(=O)[C@H]2[C@H](C(=O)O)[C@H]21` [LY404039], for which the “positive and negative symptoms of schizophrenia” value with schizophrenic patients is “statistically significant improvements”.

Turning to `CCS(=O)(=O)N(Cc1cccnc1)c1cccc(-c2ccc(C#N)cc2)c1` [LY566332], the Aβ-induced neurodegeneration result in data set [2] is on record as “amplified”.

Consider `N[C@]1(C(=O)O)[C@H]2[C@@H](C[C@H]1OCc1ccc(Cl)c(Cl)c1)[C@]2(F)C(=O)O` [MGS0039], for which, in the data set on rat, the antidepressant-like effects entry was “Antidepressant-like effects”. For the same compound, the freezing behavior result in [5] is given as “significantly decreased”. Further, in the data set on mice, the marble-burying behavior result is “reduced marble-burying behavior in a significant and dose dependent manner”; the spontaneous locomotor activity result is given as “no significant change”. Besides, in [6], the “hyperactivity in the open field test” value is listed as “attenuated” and the “learning deficit in the passive avoidance test” value is reported as “attenuated”. Moreover, the antidepressant-like effects entry with mouse is given as “Antidepressant-like effects”. For the same compound, the antidepressant effects result in data set [7] (learned helplessness test/paradigm) was “antidepressant effects”. Moreover, in data set [7] (treatment for 7 days), the “number of escape failures” value is given as “significantly reduced”. In addition, the “increased immobility in the FST” value in [8] is listed as “reversed”.

As to `Cc1cc(-c2cccc(C3=Nc4cc(C)c(C(F)(F)F)cc4NC(=O)C3)c2)cc(C)n1` [RO4491533], the immobility time result in the data set on C57Bl6/J mice is “dose-dependently reduced”. For the same compound, the “activity in the tail suspension test” value with Helpless (H) mice was “active”. Besides, the “hypolocomotor effect of mGlu2/3 agonist LY379268” value in data set [4] is recorded as “reversed”.

On to `CN1C(=O)CN=C(c2ccccc2)c2cc(Cl)ccc21` [diazepam], for which the freezing behavior entry in data set [5] was “significantly decreased”.

For `CNCCC(Oc1ccc(C(F)(F)F)cc1)c1ccccc1` (centres unmarked) [fluoxetine], in the data set on Helpless (H) mice (chronic (21 days) treatment), the “antidepressant effect in helpless mice” value was “full antidepressant effect”.
